The record followed here is patent US20240043404A1 (AbbVie Inc., priority 2009, published 2024).

One assay has as its system RS4;11 cells. As to the kind of experiment: RS4;11 cell viability assay (CellTiter Glo).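 Further: acute lymphoblastic leukemia line RS4,11, EC50 derived from percentage of viable cells after treatment relative to untreated controls, cell killing taken as a measure of Bcl-2 inhibition.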 Conditions: Homo sapiens, RS4-11, 48 h, 50,000 cells per well, 10% human serum, 48 hours; read-out: RS4; 11 EC50 Values. In kind it is cell-based, human. (ATP-based viability assays read luminescence as a measure of living cells.)
Procedure: The acute lymphoblastic leukemia (ALL) cell line RS4;11 was used as the primary human cell line to assess the cellular activity of Bcl-2 selective agents in vitro and their efficacy in vivo.
Cell cytotoxicity EC50 values were assessed using CellTiter Glo (Promega) according to the manufacturer's recommendations. The EC50 values were determined as a percentage of viable cells following treatment compared to the untreated control cells.
With `CO[C@H]1CC[C@@H](COc2ccc(S(=O)(=O)NC(=O)c3ccc(N4CCN(CC5=C(c6ccc(Cl)cc6)CC(C)(C)CC5)CC4)cc3Oc3cnc4[nH]ccc4c3)cc2[N+](=O)[O-])CC1` [Example 121, 2-(1H-pyrrolo[2,3-b]pyridin-5-yloxy)-4-(4-((2-(4-chlorophenyl)-4,4-dimethylcyclohex-1-enyl)methyl)piperazin-1-yl)-N-(4-((cis-4-methoxycyclohexyl)methoxy)-3-nitrophenylsulfonyl)benzamide], the EC50 is 59.7 nM.
In the case of `CC1(C)CCC(CN2CCN(c3ccc(C(=O)NS(=O)(=O)c4ccc(NCC5CCC(F)(F)CC5)c([N+](=O)[O-])c4)c(Oc4cnc5[nH]ccc5c4)c3)CC2)=C(c2ccc(Cl)cc2)C1` [Example 239, 4-(4-{[2-(4-chlorophenyl)-4,4-dimethylcyclohex-1-en-1-yl]methyl}piperazin-1-yl)-N-[(4-{[(4,4-difluorocyclohexyl)methyl]amino}-3-nitrophenyl)sulfonyl]-2-(1H-pyrrolo[2,3-b]pyridin-5-yloxy)benzamide], the EC50 is 23.7 nM.
Still for that read-out and setting: next, `CC1(C)CCC(CN2CCN(c3ccc(C(=O)NS(=O)(=O)c4ccc(OCC5CCC6(CC5)COC6)c([N+](=O)[O-])c4)c(Oc4cnc5[nH]ccc5c4)c3)CC2)=C(c2ccc(Cl)cc2)C1` [Example 351, 4-(4-{[2-(4-chlorophenyl)-4,4-dimethylcyclohex-1-en-1-yl]methyl}piperazin-1-yl)-N-{[3-nitro-4-(2-oxaspiro[3.5]non-7-ylmethoxy)phenyl]sulfonyl}-2-(1H-pyrrolo[2,3-b]pyridin-5-yloxy)benzamide]: 2.06 nM; `CC1(C)CCC(CN2CCN(c3ccc(C(=O)NS(=O)(=O)c4cnc(OCC5CCOCC5)c(Cl)c4)c(Oc4cnc5[nH]ccc5c4)c3)CC2)=C(c2ccc(Cl)cc2)C1` [Example 40, 4-(4-{[2-(4-chlorophenyl)-4,4-dimethylcyclohex-1-en-1-yl]methyl}piperazin-1-yl)-N-{[5-chloro-6-(tetrahydro-2H-pyran-4-ylmethoxy)pyridin-3-yl]sulfonyl}-2-(1H-pyrrolo[2,3-b]pyridin-5-yloxy)benzamide]: 99.7 nM; `CC1(C)CCC(CN2CCN(c3ccc(C(=O)NS(=O)(=O)c4ccc(NC[C@H]5CN(C6COC6)CCO5)c([N+](=O)[O-])c4)c(Oc4cnc5[nH]ccc5c4)c3)CC2)=C(c2ccc(Cl)cc2)C1` [Example 361, 4-(4-{[2-(4-chlorophenyl)-4,4-dimethylcyclohex-1-en-1-yl]methyl}piperazin-1-yl)-N-{[3-nitro-4-({[(2S)-4-(oxetan-3-yl)morpholin-2-yl]methyl}amino)phenyl]sulfonyl}-2-(1H-pyrrolo[2,3-b]pyridin-5-yloxy)benzamide]: 0.538 nM.
Same read-out and setting: to `CC1(C)CCC(CN2CCN(c3ccc(C(=O)NS(=O)(=O)c4ccc(NCC5CCC(C)(C#N)CC5)c([N+](=O)[O-])c4)c(Oc4cnc5[nH]ccc5c4)c3)CC2)=C(c2ccc(Cl)cc2)C1` (centres unmarked) [Example 366, 4-(4-{[2-(4-chlorophenyl)-4,4-dimethylcyclohex-1-en-1-yl]methyl}piperazin-1-yl)-N-[(4-{[(4-cyano-4-methylcyclohexyl)methyl]amino}-3-nitrophenyl)sulfonyl]-2-(1H-pyrrolo[2,3-b]pyridin-5-yloxy)benzamide] belongs 16.5 nM.
As to `O=C(NS(=O)(=O)c1ccc(NC[C@H]2CC[C@H](O)CC2)c([N+](=O)[O-])c1)c1ccc(N2CCN(CC3=C(c4ccc(Cl)cc4)CCC(F)(F)C3)CC2)cc1Oc1cnc2[nH]ccc2c1` [Example 324, 4-(4-{[2-(4-chlorophenyl)-5,5-difluorocyclohex-1-en-1-yl]methyl}piperazin-1-yl)-N-[(4-{[(trans-4-hydroxycyclohexyl)methyl]amino}-3-nitrophenyl)sulfonyl]-2-(1H-pyrrolo[2,3-b]pyridin-5-yloxy)benzamide], the EC50 came to 4.53 nM.
Turning to `CN1CCC(Nc2ccc(S(=O)(=O)NC(=O)c3ccc(N4CCN(CC5=C(c6ccc(Cl)cc6)CC(C)(C)OC5)CC4)cc3Oc3cnc4[nH]ccc4c3)cc2S(=O)(=O)C(F)(F)F)CC1` [Example 45, 4-(4-{[4-(4-chlorophenyl)-6,6-dimethyl-5,6-dihydro-2H-pyran-3-yl]methyl}piperazin-1-yl)-N-({4-[(1-methylpiperidin-4-yl)amino]-3-[(trifluoromethyl)sulfonyl]phenyl}sulfonyl)-2-(1H-pyrrolo[2,3-b]pyridin-5-yloxy)benzamide], the EC50 was determined as 9.92 nM.
The same measure, in the same setting: to `CC1(C)CCC(CN2CCN(c3ccc(C(=O)NS(=O)(=O)c4ccc(NC5CN(C6CCOCC6)C5)c([N+](=O)[O-])c4)c(Oc4cnc5[nH]ccc5c4)c3)CC2)=C(c2ccc(Cl)cc2)C1` [Example 116, 4-(4-{[2-(4-chlorophenyl)-4,4-dimethylcyclohex-1-en-1-yl]methyl}piperazin-1-yl)-N-({3-nitro-4-[(1-tetrahydro-2H-pyran-4-ylazetidin-3-yl)amino]phenyl}sulfonyl)-2-(1H-pyrrolo[2,3-b]pyridin-5-yloxy)benzamide] belongs 28.5 nM; to `CC1(C)CCC(CN2CCN(c3ccc(C(=O)NS(=O)(=O)c4cnc(OCC5(F)CCOCC5)c(C(F)(F)F)c4)c(Oc4cnc5[nH]ccc5c4)c3)CC2)=C(c2ccc(Cl)cc2)C1` [Example 208, 4-(4-{[2-(4-chlorophenyl)-4,4-dimethylcyclohex-1-en-1-yl]methyl}piperazin-1-yl)-N-{[6-[(4-fluorotetrahydro-2H-pyran-4-yl)methoxy]-5-(trifluoromethyl)pyridin-3-yl]sulfonyl}-2-(1H-pyrrolo[2,3-b]pyridin-5-yloxy)benzamide], 121 nM; to `CC1(C)CCC(CN2CCN(c3ccc(C(=O)NS(=O)(=O)c4cnc(O[C@@H]5CCN(C(CF)CF)C5)c(Cl)c4)c(Oc4cnc5[nH]ccc5c4)c3)CC2)=C(c2ccc(Cl)cc2)C1` [Example 274, N-[(5-chloro-6-{[(3R)-1-(1,3-difluoropropan-2-yl)pyrrolidin-3-yl]oxy}pyridin-3-yl)sulfonyl]-4-(4-{[2-(4-chlorophenyl)-4,4-dimethylcyclohex-1-en-1-yl]methyl}piperazin-1-yl)-2-(1H-pyrrolo[2,3-b]pyridin-5-yloxy)benzamide], 214 nM.
For the molecule `CC1(C)CC(c2ccc(Cl)cc2)=C(CN2CCN(c3ccc(C(=O)NS(=O)(=O)c4cnc(OCC5CCOCC5)c(C#N)c4)c(Oc4cnc5[nH]ccc5c4)c3)CC2)CO1` [Example 35, 4-(4-{[4-(4-chlorophenyl)-6,6-dimethyl-5,6-dihydro-2H-pyran-3-yl]methyl}piperazin-1-yl)-N-{[5-cyano-6-(tetrahydro-2H-pyran-4-ylmethoxy)pyridin-3-yl]sulfonyl}-2-(1H-pyrrolo[2,3-b]pyridin-5-yloxy)benzamide], the EC50 was 291 nM.
Still for that read-out and setting: next, `CC1(C)CC(c2ccc(Cl)cc2)=C(CN2CCN(c3ccc(C(=O)NS(=O)(=O)c4ccc(NCC5CCOCC5)c([N+](=O)[O-])c4)c(Oc4ccc5[nH]ccc5c4)c3)CC2)CO1` [Example 23, 4-(4-{[4-(4-chlorophenyl)-6,6-dimethyl-5,6-dihydro-2H-pyran-3-yl]methyl}piperazin-1-yl)-2-(1H-indol-5-yloxy)-N-({3-nitro-4-[(tetrahydro-2H-pyran-4-ylmethyl)amino]phenyl}sulfonyl)benzamide]: 45 nM; `CCN1CCOCC1COc1ncc(S(=O)(=O)NC(=O)c2ccc(N3CCN(CC4=C(c5ccc(Cl)cc5)CC(C)(C)CC4)CC3)cc2Oc2cnc3[nH]ccc3c2)cc1Br` (centres unmarked) [Example 102, N-({5-bromo-6-[(4-ethylmorpholin-3-yl)methoxy]pyridin-3-yl}sulfonyl)-4-(4-{[2-(4-chlorophenyl)-4,4-dimethylcyclohex-1-en-1-yl]methyl}piperazin-1-yl)-2-(1H-pyrrolo[2,3-b]pyridin-5-yloxy)benzamide]: 622 nM.
Still for that read-out and setting: to `CC(C)c1cc(S(=O)(=O)NC(=O)c2ccc(N3CCN(CC4=C(c5ccc(Cl)cc5)CC(C)(C)CC4)CC3)cc2Oc2cnc3[nH]ccc3c2)cnc1OCC1CCOCC1` [Example 85, 4-(4-{[2-(4-chlorophenyl)-4,4-dimethylcyclohex-1-en-1-yl]methyl}piperazin-1-yl)-N-{[5-isopropyl-6-(tetrahydro-2H-pyran-4-ylmethoxy)pyridin-3-yl]sulfonyl}-2-(1H-pyrrolo[2,3-b]pyridin-5-yloxy)benzamide] belongs 1950 nM; to `CC1(C)CCC(CN2CCN(c3ccc(C(=O)NS(=O)(=O)c4cnc(OCC5CCN(c6nccs6)CC5)c(Cl)c4)c(Oc4cnc5[nH]ccc5c4)c3)CC2)=C(c2ccc(Cl)cc2)C1` [Example 375, 4-(4-{[2-(4-chlorophenyl)-4,4-dimethylcyclohex-1-en-1-yl]methyl}piperazin-1-yl)-N-[(5-chloro-6-{[1-(1,3-thiazol-2-yl)piperidin-4-yl]methoxy}pyridin-3-yl)sulfonyl]-2-(1H-pyrrolo[2,3-b]pyridin-5-yloxy)benzamide], 560 nM.
Regarding `CC1(C)CCC(CN2CCN(c3ccc(C(=O)NS(=O)(=O)c4ccc(NCC5COCCN5C5CCOCC5)c([N+](=O)[O-])c4)c(Oc4cnc5[nH]ccc5c4)c3)CC2)=C(c2ccc(Cl)cc2)C1` (centres unmarked) [Example 169, 4-(4-{[2-(4-chlorophenyl)-4,4-dimethylcyclohex-1-en-1-yl]methyl}piperazin-1-yl)-N-[(3-nitro-4-{[(4-tetrahydro-2H-pyran-4-ylmorpholin-3-yl)methyl]amino}phenyl)sulfonyl]-2-(1H-pyrrolo[2,3-b]pyridin-5-yloxy)benzamide], the EC50 was 76.3 nM.
With `CC1(C)CCC(CN2CCN(c3ccc(C(=O)NS(=O)(=O)c4ccc(N[C@@H]5CCN(CC#N)C5)c([N+](=O)[O-])c4)c(Oc4cnc5[nH]ccc5c4)c3)CC2)=C(c2ccc(Cl)cc2)C1` [Example 262, 4-(4-{[2-(4-chlorophenyl)-4,4-dimethylcyclohex-1-en-1-yl]methyl}piperazin-1-yl)-N-[(4-{[(3R)-1-(cyanomethyl)pyrrolidin-3-yl]amino}-3-nitrophenyl)sulfonyl]-2-(1H-pyrrolo[2,3-b]pyridin-5-yloxy)benzamide], the EC50 worked out at 16.3 nM.

The assay is the same for the next values; noted with them: Homo sapiens, RS4-11, Table 4, selected compounds in U.S. Pat. Application No. 12/631404; read-out: RS4; 11 EC50.
Regarding `CC1(C)CC(c2ccc(Cl)cc2)=C(CN2CCN(c3ccc(C(=O)NS(=O)(=O)c4ccc(NCC5CCOCC5)c([N+](=O)[O-])c4)c(Oc4ccc5[nH]ccc5c4)c3)CC2)CO1` [Example 23, 4-(4-{[4-(4-chlorophenyl)-6,6-dimethyl-5,6-dihydro-2H-pyran-3-yl]methyl}piperazin-1-yl)-2-(1H-indol-5-yloxy)-N-({3-nitro-4-[(tetrahydro-2H-pyran-4-ylmethyl)amino]phenyl}sulfonyl)benzamide], the EC50 came to 45 nM.

Staying with this assay, now noted: Homo sapiens, RS4-11, Table 5, direct comparison Z=N with corresponding analogs Z=C; read-out: RS4; 11 EC50.
Regarding `CC1(C)CC(c2ccc(Cl)cc2)=C(CN2CCN(c3ccc(C(=O)NS(=O)(=O)c4ccc(NCC5CCOCC5)c([N+](=O)[O-])c4)c(Oc4ccc5[nH]ccc5c4)c3)CC2)CO1` [Example 23, 4-(4-{[4-(4-chlorophenyl)-6,6-dimethyl-5,6-dihydro-2H-pyran-3-yl]methyl}piperazin-1-yl)-2-(1H-indol-5-yloxy)-N-({3-nitro-4-[(tetrahydro-2H-pyran-4-ylmethyl)amino]phenyl}sulfonyl)benzamide], the EC50 is 45 nM.
